What was measured:
[1] = test system: male, Sprague-Dawley rats; assay: Oral Delivery of Insulin in Rats: whole blood glucose after oral gavage of insulin with delivery agent compound; format: in vivo, rat; conditions: sodium salt of delivery agent
Experimental: Human recombinant insulin (ICN Biomedicals, Aurora, Ohio) was dissolved in deionized water (ph˜6.5) to obtain stock insulin solutions having a concentration of 15 mg/ml. Sodium salts of the delivery agent compounds shown below in table 1 dissolved in deionized water to obtain a 200 mg/ml delivery agent solution. The free acid form of delivery agent as converted to the sodium salt by adding one equivalent of sodium hydroxide. Solutions were vortexted, sonicated, and heated. If necessary, additional sodium hydroxide was added in μl quantities to achieve uniform solubility in the delivery agent solutions. Solutions were adjusted to a pit of 3.5-8.5 by the addition of either hydrochloric acid or sodium hydroxide, as appropriate. The insulin stock solution was then added to the delivery agent solutions to obtain an administration solution ultimately having an insulin concentration of 0.5 mg/ml. After solubilization and drug addition, administration solutions were brought to a final volume by the addition of deionized water.
Insulin was administered to male, Sprague-Dawley rats either alone or in combination with delivery agent by oral gavage (PO). Rats, weighing 0.22 to 0.27 kg, were fasted for 18-24 hours prior to dosing. A Rusch 8 French catheter was cut to 11 cm in length and adapted to fit a 1 ml syringe. The syringe was filled with dosing solution and the catheter was inserted into the at mouth and fed down the esophagus (10.0 cm). The dosing solution was delivered by pressing the syringe plunger while holding the rat in an upright position. The doses of delivery agent and insulin were 200 mg/kg and […], respectively unless noted otherwise in Table 1. The dose volume was […].
Immediate to each blood sampling point, rats were exposed briefly (˜10 seconds) to carbon dioxide until prostrate. A 77-nun capillary tube was inserted into the retroorbital sinus. Typically, blood samples were collected prior to dosing (time=0) and at 15, 30, 45, and 60 minutes after dosing.
To determine the pharmacodynamic response, a hand-held glucometer (OneTouch Ultra, LifeScan—Johnson & Johnson, New Brunswick, N.J.) was used to measure whole blood glucose after administration of insulin or insulin and delivery agent. After discarding the first drop of blood, a small sample (˜5-10 μls) was touched to the glucometer test strip (OneTouch Ultra, LifeScan) and a blood glucose reading was generated by the meter. Samples at the times indicated below in Table 1 after dosing.

[2] = insulin 0.5 mg/kg, delivery agent 100 mg/kg, time period 30 minutes
[3] = insulin 0.5 mg/kg, delivery agent 100 mg/kg, time period 45 minutes
[4] = insulin 0.5 mg/kg, delivery agent 200 mg/kg, time period 30 minutes

Q: With `Cc1ccc(C)c(OCCCC(=O)O)c1` [Compound 1, 4-(2,5-Dimethylphenoxy)butyric acid] as the molecule, how does the “Average Glucose Reduction (5 rats/experiment)” value ([1]; insulin 0.05 mg/kg, delivery agent 200 mg/kg, time period 15 minutes) read?
A: Its value is −16.1%.

Q: And the “Average Glucose Reduction (5 rats/experiment)” value ([1]; insulin 0.10 mg/kg, delivery agent 200 mg/kg, time period 30 minutes)?
A: Its value is −13.0%.

Q: And the “Average Glucose Reduction (5 rats/experiment)” value ([1]; insulin 0.3 mg/kg, delivery agent 200 mg/kg, time period 45 minutes)?
A: Its value is −34.0%.

Q: What about the “Average Glucose Reduction (5 rats/experiment)” value [1, 2] of the same molecule?
A: Its value is −31.4%.

Q: What about the “Average Glucose Reduction (5 rats/experiment)” value [1, 3] of the same molecule?
A: Its value is −60.6%.

Q: With `CC(=O)c1cccc(OCCCCCC(=O)O)c1` [Compound 2, 6-(3-Acetylphenoxy)hexanoic acid] as the molecule, how does the “Average Glucose Reduction (5 rats/experiment)” value ([1]; insulin 0.5 mg/kg, delivery agent 25 mg/kg, time period 45 minutes) read?
A: The value was −25.8%.

Q: What about the “Average Glucose Reduction (5 rats/experiment)” value ([1]; insulin 0.5 mg/kg, delivery agent 50 mg/kg, time period 45 minutes) of the same molecule?
A: Its value is −30.2%.

Q: What about the “Average Glucose Reduction (5 rats/experiment)” value [1, 3] of the same molecule?
A: Its value is −50.8%.

Q: For `Cc1cccc(OCCCC(=O)O)c1` [Compound 6], which “Average Glucose Reduction (5 rats/experiment)” value ([1]; insulin 0.25 mg/kg, delivery agent 100 mg/kg, time period 45 minutes) is on record?
A: The value was −30.9%.

Q: What about the “Average Glucose Reduction (5 rats/experiment)” value [1, 3] of the same molecule?
A: Its value is −39.3%.

Q: What about the “Average Glucose Reduction (5 rats/experiment)” value ([1]; insulin 0.5 mg/kg, delivery agent 200 mg/kg, time period 60 minutes) of the same molecule?
A: The value was −14.4%.

Q: What about the melting point of the same molecule?
A: Its melting point is 53 to 54 °C.

Q: With `O=C(O)CCCOc1cccc(F)c1` [Compound 7, 4-(3-Fluorophenoxy)butyric acid] as the molecule, how does the melting point read?
A: Its melting point is 53 to 54 °C.

Q: For `O=C(O)CCCOc1ccccc1Cl` [Compound 8, 4-(2-Chlorophenoxy)butanoic acid], which melting point is on record?
A: Its melting point is 85 to 87 °C.

Q: For `CC(C)(Oc1ccc(Cl)cc1)C(=O)NCCCCCC(=O)O` [Compound 10, 6-[2-(4-Chlorophenoxy)-2-methylpropionyl]-aminohexanoic acid], which “Average Glucose Reduction (5 rats/experiment)” value [1, 4] is on record?
A: Its value is 2.5%.

Q: With `Cc1cc(F)ccc1OCCCC(=O)O` [Compound 11, 4-(4-Fluoro-2-methyl-phenoxy)-butyric aid] as the molecule, how does the “Average Glucose Reduction (5 rats/experiment)” value [1, 4] read?
A: The value was −63.7%.

Q: What about the “Average Glucose Reduction (5 rats/experiment)” value ([1]; insulin 0.5 mg/kg, delivery agent 200 mg/kg, time period 45 minutes) of the same molecule?
A: Its value is −78.0%.

Q: With `Cc1ccc(F)c(OCCCC(=O)O)c1` [Compound 12, 4-(2-Fluoro-5-methyl-phenoxy)-butyric acid] as the molecule, how does the “Average Glucose Reduction (5 rats/experiment)” value ([1]; insulin 0.25 mg/kg, delivery agent 100 mg/kg, time period 30 minutes) read?
A: The value was −41.0%.

Q: And the “Average Glucose Reduction (5 rats/experiment)” value ([1]; insulin 0.5 mg/kg, delivery agent 25 mg/kg, time period 60 minutes)?
A: Its value is −13.1%.

Q: And the “Average Glucose Reduction (5 rats/experiment)” value ([1]; insulin 0.5 mg/kg, delivery agent 50 mg/kg, time period 60 minutes)?
A: The value was −25.7%.

Q: And the “Average Glucose Reduction (5 rats/experiment)” value [1, 2]?
A: Its value is −47.9%.

Source: patent USRE48164E1, “Compounds and compositions for delivering active agents” (EMISPHERE TECHNOLOGIES INC., priority 2007, dated 2020)
